Source: patent publication US20250108038A1 (priority 2023, published 2025)
Several values for one entry are separate records, joined by “and”; a condition that tells them apart may be missing. Identical values can stand only once. Like-named read-outs stand apart in the source and are kept apart here.

Tests used:
in vivo = conditions: for plasma concentration of Compound A: Compound A single PO 5.102 mg/kg
Experimental: Dose solutions were prepared freshly on each day of studies prior to dosing.
The animals were weighed immediately prior to dosing and the dose volume was calculated individually based the obtained body weight and the nominal dose volume. […] The nominal dose volume was 10 mL/kg in both studies.
Cage side observation was performed before and after dosing as well as at each scheduled sample collection time. The observation included appearance, posture, behavior, morbidity and mortality. Abnormal findings, if any, are required to be recorded in the study record and communicated with study director, veterinarian, and Supernus if necessary.
Approximately 40 μL blood was collected at each scheduled time point from saphenous veins. The actual sample collection time was within 1 min. of the nominal time for collections prior to or at 1 hour, and within 5% of the nominal values for collections post 1 hour.
The blood samples were placed in pre-labeled micro-centrifuge tubes containing K2EDTA as anticoagulant and kept on ice before they were processed to plasma within 30 minutes of collection by centrifugation at 4° C., 3000 g for 5 minutes. The plasma samples were stored at −70±10° C. until LC-MS/MS analysis.
Plasma concentrations below the LLOQ prior to Tmax were set to zero, and those after Tmax were excluded from PK calculation. The nominal dose and the nominal sample collection time were used for the calculation. The values of plasma concentrations and PK parameters are reported to three significant figures. The average values of each treatment group are presented as mean±SD.

[1] = type: physicochemical
Experimental: All conditions and stock preparation procedures were identical to the conditions applied in the transporter assays (Table 74, Table 75 and Table 76). […] A follow-up assay was carried out at 7 concentrations in order to correct the nominal concentrations for the IC50 calculations (Table 78). Where NSB was observed (>20% loss) the assay concentrations were corrected according to the result of the respective NSB assay.
All conditions and stock preparation procedures were identical to the conditions applied in the transporter assays.
Samples (1.5×C0 or Total) were immediately taken after mixing to determine the total initial concentrations. The assay mixes were pre-incubated for 15 minutes at 37° C. and at 32° C. in case of BCRP and MDR1. After the pre-incubation step the assay mixes were 1.5-times diluted with (pre-warmed) transport buffer reaching the final nominal concentrations of the compounds in the VT assay and then were further incubated at 37° C. or 32° C. for BCRP and MDR1 and sampled in the end of incubation (timc).
The aqueous buffer was mixed, and samples (C0 or Total) were immediately taken for determining the total initial concentrations. The helper plate was pre-warmed for 15 minutes at 37° C. The pre-warmed aliquots of the aqueous buffers with the test articles (50 μL) were transferred from the helper plate into the wells of another 96-well plate (assay plate) and incubated for 30 minutes (pre-incubation) then removed from the wells. Thereafter the same wells of the assay plate were dosed again with other aliquots of the aqueous buffers with the test articles and were further incubated in the assay plate at 37° C. and finally sampled (tinc).

[2] = male, CD-1, mouse, in vivo, po, 5.102 mg/kg
[3] = HBSS (pH 7.4) uptake buffer, 37° C., nominal 3.00 μM
[4] = HBSS (pH 7.4) uptake buffer, 37° C., nominal 30.00 μM
[5] = KH (pH 8.0) uptake buffer, 37° C., nominal 3.00 μM
[6] = KH (pH 8.0) uptake buffer, 37° C., nominal 30.00 μM
[7] = Transport buffer with sucrose (pH 7.4), BCRP and MDR1 VT, 32° C., nominal C0 5.00 μM
[8] = Transport buffer with sucrose (pH 7.4), BCRP and MDR1 VT, 32° C., nominal C0 50.00 μM

OC1(c2ccc(Cl)cc2)c2ccccc2C2=NCCN21 (centres unmarked) [Compound A, 5-(4-chlorophenyl)-2,3-dihydroimidazo[1,2-b]isoindol-5-ol, reference compound]
plasma concentration of Compound A (in vivo; 0.500 h, individual mice, 5.102 mg/kg): 0.117 µg/mL and 0.172 µg/mL and 0.141 µg/mL
plasma concentration of Compound A (in vivo; 0.500 h, mean): 0.143 µg/mL
plasma concentration of Compound A (in vivo; 1.00 h, individual mice, 5.102 mg/kg): 0.0778 µg/mL and 0.0717 µg/mL and 0.102 µg/mL
plasma concentration of Compound A (in vivo; 1.00 h, mean): 0.0838 µg/mL
plasma concentration of Compound A (in vivo; 2.00 h, individual mice, 5.102 mg/kg): 0.0323 µg/mL and 0.0252 µg/mL and 0.0244 µg/mL
plasma concentration of Compound A (in vivo; 2.00 h, mean): 0.0273 µg/mL
plasma concentration of Compound A (in vivo; 4.00 h, individual mice, 5.102 mg/kg): 0.00942 µg/mL and 0.00431 µg/mL and 0.00899 µg/mL
plasma concentration of Compound A (in vivo; 4.00 h, mean): 0.00757 µg/mL
plasma concentration of Compound A (in vivo; 8.00 h, individual mice): BQL
plasma concentration of Compound A (in vivo; 24.0 h, individual mice): BQL
Tmax of Compound A (in vivo; male, CD-1, mouse, in vivo, ip, 4.061 mg/kg): 30 min
AUC(0-t) (in vivo; [2]): 0.179 ± 0.00691 µg·h/mL
Cmax (in vivo; [2]): 0.143 ± 0.0276 µg/mL
MRT last (in vivo; [2]): 70.8 ± 6.78 min
Tmax (in vivo; [2]): 30 min
half-life (in vivo; [2]): 53.1 ± 7.8 min
Tmax of Compound A (in vivo; male, CD-1, mouse, in vivo, po, 6.645 mg/kg): 15 min
Clinical observation (tolerability) (in vivo; mouse, in vivo): well tolerated
Non-specific binding (NSB) ([1]; BCRP, BSEP and MDR1 VT inhibition assay setup): did not show any NSB
Non-specific binding (NSB) ([1]; HBSS (pH 7.4) and KH (pH 8.0) uptake assay buffers): did not show any NSB
Concentration after incubation [1, 3]: 1.85 ± 0.13 µM
Loss of Compound A during the NSB assay [1, 3]: 14%
Measured dosing concentrations [1, 3]: 2.16 ± 0.05 µM
Concentration after incubation [1, 4]: 17.66 ± 0.35 µM
Loss of Compound A during the NSB assay [1, 4]: 15%
Measured dosing concentrations [1, 4]: 20.71 ± 0.67 µM
Concentration after incubation [1, 5]: 1.86 ± 0.06 µM
Loss of Compound A during the NSB assay [1, 5]: 20%
Measured dosing concentrations [1, 5]: 2.31 ± 0.11 µM
Concentration after incubation [1, 6]: 18.15 ± 0.42 µM
Loss of Compound A during the NSB assay [1, 6]: 18%
Measured dosing concentrations [1, 6]: 22.13 ± 0.61 µM
Concentration after incubation (tinc) [1, 7]: 6.27 ± 0.69 µM
Loss of Compound A during the NSB assay [1, 7]: 3%
Measured dosing concentrations ([…] C0) [1, 7]: 9.65 ± 1.52 µM
Concentration after incubation (tinc) [1, 8]: 55.92 ± 2.44 µM
Loss of Compound A during the NSB assay [1, 8]: −2%
Measured dosing concentrations ([…] C0) [1, 8]: 82.20 ± 3.76 µM
